Among the data in ChEMBL document CHEMBL5465560, “Selectivity Literature for EUbOPEN Chemogenomic Library” (2024) are % of control and % of inhibition values, retold here.

Experiment [1] has as its target T1, Tyrosine-protein kinase Mer (Homo sapiens) (UniProt Q12866).
T1 sequence (whole entry): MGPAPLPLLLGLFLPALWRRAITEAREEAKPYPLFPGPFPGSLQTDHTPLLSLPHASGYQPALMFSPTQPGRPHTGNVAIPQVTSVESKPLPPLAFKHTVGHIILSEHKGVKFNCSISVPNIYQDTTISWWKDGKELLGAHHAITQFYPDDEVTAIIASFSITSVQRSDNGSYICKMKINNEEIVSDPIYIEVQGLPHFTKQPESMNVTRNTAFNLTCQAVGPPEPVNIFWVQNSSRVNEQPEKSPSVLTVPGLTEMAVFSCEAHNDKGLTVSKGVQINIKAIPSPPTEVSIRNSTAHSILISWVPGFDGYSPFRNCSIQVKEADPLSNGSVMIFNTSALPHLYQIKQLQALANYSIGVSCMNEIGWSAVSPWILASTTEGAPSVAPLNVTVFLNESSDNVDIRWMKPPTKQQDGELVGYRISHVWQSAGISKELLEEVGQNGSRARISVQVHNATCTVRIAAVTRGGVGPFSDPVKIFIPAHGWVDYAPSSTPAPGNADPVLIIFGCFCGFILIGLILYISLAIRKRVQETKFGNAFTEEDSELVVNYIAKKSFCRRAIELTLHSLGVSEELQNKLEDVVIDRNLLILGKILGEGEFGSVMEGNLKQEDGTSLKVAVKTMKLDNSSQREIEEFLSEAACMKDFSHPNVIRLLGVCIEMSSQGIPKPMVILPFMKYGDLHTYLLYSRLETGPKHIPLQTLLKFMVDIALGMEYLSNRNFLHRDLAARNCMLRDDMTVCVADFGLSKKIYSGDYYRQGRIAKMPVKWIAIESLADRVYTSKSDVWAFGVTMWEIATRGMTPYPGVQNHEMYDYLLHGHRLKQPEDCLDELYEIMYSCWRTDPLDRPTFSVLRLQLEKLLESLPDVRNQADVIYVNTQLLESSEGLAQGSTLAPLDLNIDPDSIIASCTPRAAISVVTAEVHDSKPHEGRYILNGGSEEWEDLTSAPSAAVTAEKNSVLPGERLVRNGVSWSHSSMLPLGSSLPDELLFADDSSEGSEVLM
Put plainly: Selectivity interaction (KinomeScan (DiscoverX)) EUB0001619a MERTK. To be noted: at 1 µM.

For experiment [2], the target named is Non-receptor tyrosine-protein kinase TYK2 (Homo sapiens, UniProt P29597). Conditions: at 10 µM.
Chain of Non-receptor tyrosine-protein kinase TYK2 (P29597 whole entry): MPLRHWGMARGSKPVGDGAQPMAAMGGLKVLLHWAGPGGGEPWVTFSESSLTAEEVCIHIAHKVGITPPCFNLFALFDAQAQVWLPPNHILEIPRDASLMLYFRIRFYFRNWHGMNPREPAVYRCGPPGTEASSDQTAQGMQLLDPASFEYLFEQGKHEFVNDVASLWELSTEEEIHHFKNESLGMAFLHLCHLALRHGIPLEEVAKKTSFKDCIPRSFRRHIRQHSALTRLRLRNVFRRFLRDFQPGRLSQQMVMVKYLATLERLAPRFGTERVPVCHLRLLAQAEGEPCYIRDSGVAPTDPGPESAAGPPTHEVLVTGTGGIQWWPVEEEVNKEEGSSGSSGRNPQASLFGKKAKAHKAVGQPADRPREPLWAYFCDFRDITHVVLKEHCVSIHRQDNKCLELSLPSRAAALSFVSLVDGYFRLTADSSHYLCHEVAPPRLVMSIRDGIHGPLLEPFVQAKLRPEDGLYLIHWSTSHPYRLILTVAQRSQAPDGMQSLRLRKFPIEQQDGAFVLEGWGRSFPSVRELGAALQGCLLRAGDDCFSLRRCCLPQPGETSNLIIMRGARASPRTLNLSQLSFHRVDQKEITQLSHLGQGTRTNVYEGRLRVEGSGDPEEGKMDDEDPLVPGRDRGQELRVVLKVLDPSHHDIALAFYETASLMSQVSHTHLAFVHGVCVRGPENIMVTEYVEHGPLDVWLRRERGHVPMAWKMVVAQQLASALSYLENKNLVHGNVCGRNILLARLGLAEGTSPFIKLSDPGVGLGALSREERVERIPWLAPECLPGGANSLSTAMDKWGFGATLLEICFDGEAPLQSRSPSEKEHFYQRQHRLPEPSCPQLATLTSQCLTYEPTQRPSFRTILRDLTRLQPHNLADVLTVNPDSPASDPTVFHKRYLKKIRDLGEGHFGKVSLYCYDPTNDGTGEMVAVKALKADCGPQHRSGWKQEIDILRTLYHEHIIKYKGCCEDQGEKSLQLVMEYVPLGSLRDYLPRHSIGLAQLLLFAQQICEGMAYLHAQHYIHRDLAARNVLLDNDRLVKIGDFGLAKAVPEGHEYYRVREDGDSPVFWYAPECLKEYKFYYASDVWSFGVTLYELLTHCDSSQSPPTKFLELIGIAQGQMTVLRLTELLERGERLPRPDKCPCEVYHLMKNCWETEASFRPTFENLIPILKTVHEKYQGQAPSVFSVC
The target in experiment [3] is T2, Serine/threonine-protein kinase Nek9 (Homo sapiens) (UniProt Q8TD19).
T2 sequence (whole entry): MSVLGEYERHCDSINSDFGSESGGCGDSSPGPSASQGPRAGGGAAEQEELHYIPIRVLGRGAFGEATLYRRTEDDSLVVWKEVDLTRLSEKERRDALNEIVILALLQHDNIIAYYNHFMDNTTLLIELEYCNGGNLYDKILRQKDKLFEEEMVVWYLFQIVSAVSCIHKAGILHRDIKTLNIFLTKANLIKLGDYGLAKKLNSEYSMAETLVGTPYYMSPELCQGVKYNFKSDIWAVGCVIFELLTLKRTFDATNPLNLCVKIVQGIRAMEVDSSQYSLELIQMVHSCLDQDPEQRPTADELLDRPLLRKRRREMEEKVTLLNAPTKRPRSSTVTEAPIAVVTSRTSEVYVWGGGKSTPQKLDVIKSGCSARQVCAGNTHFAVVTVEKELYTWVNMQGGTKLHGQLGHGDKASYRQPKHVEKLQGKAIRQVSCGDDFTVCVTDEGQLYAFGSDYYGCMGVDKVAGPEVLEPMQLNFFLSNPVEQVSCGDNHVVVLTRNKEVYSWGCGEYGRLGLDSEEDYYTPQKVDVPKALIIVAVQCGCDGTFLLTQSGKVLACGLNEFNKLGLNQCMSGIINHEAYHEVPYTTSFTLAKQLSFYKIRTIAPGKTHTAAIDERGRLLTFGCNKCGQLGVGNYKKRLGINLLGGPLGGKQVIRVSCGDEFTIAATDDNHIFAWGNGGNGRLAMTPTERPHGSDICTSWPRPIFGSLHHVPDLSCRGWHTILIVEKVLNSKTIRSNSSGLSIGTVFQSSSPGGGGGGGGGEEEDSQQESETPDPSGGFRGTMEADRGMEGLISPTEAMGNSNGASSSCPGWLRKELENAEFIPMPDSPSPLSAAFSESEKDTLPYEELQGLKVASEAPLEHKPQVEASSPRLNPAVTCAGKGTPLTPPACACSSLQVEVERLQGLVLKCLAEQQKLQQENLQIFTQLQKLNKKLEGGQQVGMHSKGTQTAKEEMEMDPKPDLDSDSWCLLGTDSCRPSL
Put plainly: Selectivity interaction (ActivX KiNativ screen (kinase selectivity in THP-1 cell lysates)) EUB0000639a NEK9. It is filed as subcellular. To be noted: lysate.

In experiment [4] the target is Ribosomal protein S6 kinase alpha-1 (Homo sapiens, UniProt Q15418). In words: Selectivity interaction (ActivX KiNativ screen (kinase selectivity in THP-1 cell lysates)) EUB0000639a RPS6KA1. It is filed as subcellular. To be noted: lysate, at 0.04 µM.
Chain of Ribosomal protein S6 kinase alpha-1 (Q15418 whole entry): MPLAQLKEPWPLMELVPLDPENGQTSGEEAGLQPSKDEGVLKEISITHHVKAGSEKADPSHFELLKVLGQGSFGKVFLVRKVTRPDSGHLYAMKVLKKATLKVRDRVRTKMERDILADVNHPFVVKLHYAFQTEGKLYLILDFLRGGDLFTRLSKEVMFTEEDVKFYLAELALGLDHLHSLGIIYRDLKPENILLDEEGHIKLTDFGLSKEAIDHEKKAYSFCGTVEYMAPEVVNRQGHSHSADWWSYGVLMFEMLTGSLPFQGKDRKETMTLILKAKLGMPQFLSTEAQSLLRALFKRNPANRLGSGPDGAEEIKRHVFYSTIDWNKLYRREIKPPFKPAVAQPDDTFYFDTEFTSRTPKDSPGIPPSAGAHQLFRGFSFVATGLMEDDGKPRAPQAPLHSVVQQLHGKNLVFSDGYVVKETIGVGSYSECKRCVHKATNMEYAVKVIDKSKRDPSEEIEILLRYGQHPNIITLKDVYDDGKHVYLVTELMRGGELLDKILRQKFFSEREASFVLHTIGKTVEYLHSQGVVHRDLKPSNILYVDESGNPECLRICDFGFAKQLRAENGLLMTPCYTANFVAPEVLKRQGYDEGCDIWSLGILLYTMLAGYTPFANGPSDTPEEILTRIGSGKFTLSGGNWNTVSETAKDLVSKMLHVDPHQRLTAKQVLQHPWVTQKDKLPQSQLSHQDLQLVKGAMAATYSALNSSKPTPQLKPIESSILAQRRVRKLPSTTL
Experiment [5] addresses T3, Receptor-interacting serine/threonine-protein kinase 4 (Homo sapiens) (UniProt P57078).
T3 sequence (whole entry): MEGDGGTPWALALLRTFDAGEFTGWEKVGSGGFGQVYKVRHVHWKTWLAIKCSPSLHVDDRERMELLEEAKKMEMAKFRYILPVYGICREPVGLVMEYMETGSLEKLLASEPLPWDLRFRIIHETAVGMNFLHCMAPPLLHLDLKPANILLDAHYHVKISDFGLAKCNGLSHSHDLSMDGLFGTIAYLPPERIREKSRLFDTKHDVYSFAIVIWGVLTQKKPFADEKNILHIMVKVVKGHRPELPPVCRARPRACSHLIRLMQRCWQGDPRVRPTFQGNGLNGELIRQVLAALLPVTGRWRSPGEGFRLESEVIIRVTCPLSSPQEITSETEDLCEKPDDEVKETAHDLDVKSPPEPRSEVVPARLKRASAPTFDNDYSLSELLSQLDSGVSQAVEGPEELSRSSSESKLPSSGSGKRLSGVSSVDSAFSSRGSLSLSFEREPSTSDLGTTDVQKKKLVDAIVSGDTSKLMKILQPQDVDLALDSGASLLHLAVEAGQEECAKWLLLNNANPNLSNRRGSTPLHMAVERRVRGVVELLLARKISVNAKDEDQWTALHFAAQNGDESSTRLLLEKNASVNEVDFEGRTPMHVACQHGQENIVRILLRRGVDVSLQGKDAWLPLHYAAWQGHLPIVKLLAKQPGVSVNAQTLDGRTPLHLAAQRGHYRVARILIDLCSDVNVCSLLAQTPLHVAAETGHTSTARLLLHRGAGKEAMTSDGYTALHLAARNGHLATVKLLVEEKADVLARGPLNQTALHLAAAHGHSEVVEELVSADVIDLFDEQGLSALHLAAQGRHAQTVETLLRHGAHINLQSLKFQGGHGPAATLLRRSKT
In words: Selectivity interaction (KinomeScan (DiscoverX)) EUB0000618a RIPK4. To be noted: at 10 µM.

As for `N#Cc1cccc(-c2c[nH]c3ncnc(N4CCOCC4)c23)c1`, the % of control in experiment [1] came out at 100%.

The molecule `CCN(CC)CCCCNc1ncc2cc(-c3cc(OC)cc(OC)c3)c(NC(=O)NC(C)(C)C)nc2n1` displayed a % of control in experiment [2] of 100%.

Consider `CC[C@@H]1[C@H](F)C(=O)N[C@@H]1COc1nccc2cc(C(N)=O)c(OC)cc12` [ZIMLOVISERTIB], for which the % of inhibition in experiment [3] (at 0.01 µM) was 0.3%; in experiment [3] (at 0.04 µM), -3.6%; in experiment [3] (at 0.2 µM), -11.2%; in experiment [3] (at 1 µM) it was 7.7%; in experiment [3] (at 5 µM), 0.4%; in experiment [4], -6.2%.

In experiment [5], `O[C@H]1CC[C@H](Nc2ncc3nc(Nc4c(F)cc(F)cc4F)n([C@H]4CCOC4)c3n2)CC1` displayed a % of control of 88%.
